Columns and labels:
[1] = test system: H3K9me2 in MDA-MB-231 cells; assay: MDA-MB-231 H3K9me2 in-cell western assay; assay type: cell-based; details: Homo sapiens, read-out: EHMT2 ICW (IC50 μM)
Excerpt: MDA-MB-231 cell line was purchased from ATCC (Manassas, Va., USA). RPMI/Glutamax medium, Penicillin-Streptomycin, Heat Inactivated Fetal Bovine Serum, and D-PBS were purchased from Life Technologies (Grand Island, N.Y., USA). Odyssey blocking buffer, 800CW goat anti-mouse IgG (H+L) antibody, and Licor Odyssey Infrared Scanner were purchased from Licor Biosciences, Lincoln, Nebr., USA. H3K9me2 mouse monoclonal antibody (Cat #1220) was purchased from Abcam (Cambridge, Mass., USA). 16% Paraformaldehyde was purchased from Electron Microscopy Sciences, Hatfield, Pa., USA). MDA-MB-231 cells were maintained in complete growth medium (RPMI supplemented with 10% v/v heat inactivated fetal bovine serum) and cultured at 37° C. under 5% CO2. UNC0638 was purchased from Sigma-Aldrich (St. Louis, Mo., USA).
General Procedure for MDA-MB-231 HEK9me2 In-Cell Western Assay.
Compound (100 nL) was added directly to 384-well cell plate. MDA-MB-231 cells (ATCC) were seeded in assay medium (RPMI/Glutamax supplemented with 10% v/v heat inactivated fetal bovine serum and 1% Penicillin/Streptomycin, Life Technologies) at a concentration of 3,000 cells per well to a Poly-D-Lysine coated 384-well cell culture plate with 50 μL per well. Plates were incubated at 37° C., 5% CO2 for 48 hours (BD Biosciences 356697). Plates were incubated at room temperature for 30 minutes and then incubated at 37° C., 5% CO2 for additional 48 hours. After the incubation, 50 μL per well of 8% paraformaldehyde (Electron Microscopy Sciences) in PBS was added to the plates and incubated at room temperature for 20 minutes. Plates were transferred to a Biotek 406 plate washer and washed 2 times with 100 μL per well of wash buffer (1×PBS containing 0.3% Triton X-100 (v/v)). Next, 60 μL per well of Odyssey blocking buffer (Licor Biosciences) was added to each plate and incubated for 1 hour at room temperature. Blocking buffer was removed and 20 μL of monoclonal primary antibody α-H3K9me2 (Abcam) diluted 1:800 in Odyssey buffer with 0.1% Tween 20 (v/v) were added and plates were incubated overnight (16 hours) at 4° C. Plates were washed 5 times with 100 μL per well of wash buffer. Next 20 μL per well of secondary antibody was added (1:500 800CW […] anti-mouse IgG (H+L) antibody (Licor Biosciences), 1:1000 DRAQ5 (Cell Signaling Technology) in Odyssey buffer with 0.1% Tween 20 (v/v)) and incubated for 1 hour at room temperature. The plates were washed 5 times with 100 μL per well wash buffer then 2 times with 100 μL per well of water. Plates were allowed to dry at room temperature then imaged on a Licor Odyssey Infrared Scanner (Licor Biosciences) which measured integrated intensity at 700 nm and 800 nm wavelengths. Both 700 and 800 channels were scanned.
% Inhibition Calculation.
First, the ratio for each well was determined by
Each plate included fourteen control wells of DMSO only treatment (Minimum Inhibition) as well as fourteen control wells (background wells) for maximum inhibition treated with control compound UNC0638 (Background wells).
The average of the ratio values for each well was calculated and used to determine the percent inhibition for each test well in the plate. Control compound was serially diluted three-fold in DMSO for a total of 10 test concentrations beginning at 1 μM. Percent inhibition was calculated as: […]
IC50 curves were generated using triplicate wells per concentration of compound. The IC50 is the concentration of compound at which measured methylation is inhibited by 50% as interpolated from the dose response curves. IC50 values were calculated using a non-linear regression (variable slope-four parameter fit model) with by the following formula
where Top is fixed at 100% and Bottom is fixed to 0%, [I]=concentration of inhibitor, IC50=half maximal inhibitory concentration and n=Hill Slope.

EHMT1 = molecular target: T1, EHMT1 (Homo sapiens, UniProt Q9H9B1); assay: EHMT1 PEP (EHMT1 peptide enzyme assay); assay type: biochemical; details: peptide substrate enzyme assay
T1 sequence (Q9H9B1 1-1298): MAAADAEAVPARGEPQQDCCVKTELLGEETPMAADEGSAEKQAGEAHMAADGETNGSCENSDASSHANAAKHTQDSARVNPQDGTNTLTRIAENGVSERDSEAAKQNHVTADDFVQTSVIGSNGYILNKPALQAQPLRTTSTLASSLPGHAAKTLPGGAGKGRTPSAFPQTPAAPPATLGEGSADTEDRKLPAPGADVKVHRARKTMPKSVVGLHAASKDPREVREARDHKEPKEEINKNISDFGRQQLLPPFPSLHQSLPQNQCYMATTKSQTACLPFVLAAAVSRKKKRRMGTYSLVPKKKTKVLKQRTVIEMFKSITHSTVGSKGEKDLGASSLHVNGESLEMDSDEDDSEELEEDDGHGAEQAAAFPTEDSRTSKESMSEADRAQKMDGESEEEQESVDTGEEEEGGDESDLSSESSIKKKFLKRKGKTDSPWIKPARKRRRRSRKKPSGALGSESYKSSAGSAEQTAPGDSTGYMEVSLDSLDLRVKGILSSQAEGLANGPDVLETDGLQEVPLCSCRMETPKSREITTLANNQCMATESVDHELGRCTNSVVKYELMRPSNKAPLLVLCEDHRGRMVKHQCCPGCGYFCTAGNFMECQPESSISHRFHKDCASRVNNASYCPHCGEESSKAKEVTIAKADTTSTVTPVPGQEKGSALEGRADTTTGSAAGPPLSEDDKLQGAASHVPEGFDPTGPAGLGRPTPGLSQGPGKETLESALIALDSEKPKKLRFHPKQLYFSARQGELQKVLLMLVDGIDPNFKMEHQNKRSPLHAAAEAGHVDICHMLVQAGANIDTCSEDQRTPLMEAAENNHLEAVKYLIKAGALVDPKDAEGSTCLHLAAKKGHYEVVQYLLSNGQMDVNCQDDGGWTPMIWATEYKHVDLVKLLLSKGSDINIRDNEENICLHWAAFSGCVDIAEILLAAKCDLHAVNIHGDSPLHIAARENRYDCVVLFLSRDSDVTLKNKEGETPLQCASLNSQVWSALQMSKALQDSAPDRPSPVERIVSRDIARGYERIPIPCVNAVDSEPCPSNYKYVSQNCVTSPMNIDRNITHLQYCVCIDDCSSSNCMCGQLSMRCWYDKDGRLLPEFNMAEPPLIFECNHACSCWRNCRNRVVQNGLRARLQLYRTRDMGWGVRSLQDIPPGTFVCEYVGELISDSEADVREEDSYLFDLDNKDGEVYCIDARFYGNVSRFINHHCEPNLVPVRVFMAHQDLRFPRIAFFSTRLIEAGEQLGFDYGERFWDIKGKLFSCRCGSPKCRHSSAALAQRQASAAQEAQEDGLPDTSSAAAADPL

| IC50 [1] [µM] | IC50 (EHMT1) [µM] | Structure (SMILES) |
| --- | --- | --- |
| 1 to 10 | < 0.1 | CNc1cc(C)nc(Nc2ccc(OC)c(-c3cc4[nH]cnc4cn3)c2)n1 [Compound 210] |
| > 10 | > 10 | CNc1cc(C)nc(Nc2ccc(OC)c(-c3cn[nH]c3)c2)n1 [Compound 12, 2-N-[4-methoxy-3-(1H-pyrazol-4-yl)phenyl]-4-N,6-dimethylpyrimidine-2,4-diamine] |
| 1 to 10 | < 0.1 | COc1cc2c(cc1-c1cc3ccncc3[nH]1)N=C(N)C21CCC1 [Compound 202] |
| 1 to 10 | 0.1 to 1 | CNc1cc(C)nc(Nc2ccc(OC)c(-c3cn4ccnc4cn3)c2)n1 [Compound 234] |
| < 0.1 | < 0.1 | CNc1cc(C)nc(Nc2ccc(OC)c(-c3[nH]c4cnccc4c3C)c2)n1 [Compound 200, N2-(4-methoxy-3-(3-methyl-1H-pyrrolo[2,3-c]pyridin-2-yl)phenyl)-N4,6-dimethylpyrimidine-2,4-diamine] |
| > 10 | 1 to 10 | COc1cc(NC2CCNCC2)ncc1-c1cc2[nH]ccc2cn1 [Compound 208] |
| 0.1 to 1 | < 0.1 | COc1cc2c(cc1-n1cc(C3CCCN3)nn1)N=C(N)C21CCC1 (stereo not shown) [Compound 194] |
| > 10 | 1 to 10 | CNc1cc(C)nc(Nc2ccc(OC)c(-c3cc4ncncc4[nH]3)c2)n1 [Compound 201] |

From patent US20220235065A1 (Epizyme, Inc., priority 2016, published 2022)
